From ChEMBL document CHEMBL1201862, “PubChem BioAssay data set” (2004)
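Protocol summary: plate cells (96-well), add compound at 5 concentrations, incubate 48 h, interpolate endpoints linearly. GI50: concentration for 50% inhibition of growth.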 The source made the active and inactive calls. Rule as the data show it: active = GI50 up to about 1.1 µM and inactive = higher.

Experiments:
Test in all cases: NCI-60 cell line screen, 48 h
786-0 = test system: 786-0
A498 = test system: A498
A549 = test system: A549
ACHN = test system: ACHN
BT-549 = test system: BT-549
CAKI-1 = test system: CAKI-1
CCRF-CEM = test system: CCRF-CEM
COLO 205 = test system: COLO 205
DU-145 = test system: DU-145
EKVX = test system: EKVX
HCC 2998 = test system: HCC 2998
HCT-116 = test system: HCT-116
HCT-15 = test system: HCT-15
HL-60 = test system: HL-60
HOP-62 = test system: HOP-62
HOP-92 = test system: HOP-92
HT-29 = test system: HT-29
Hs-578T = test system: Hs-578T
IGROV-1 = test system: IGROV-1
K562 = test system: K562
KM12 = test system: KM12
LOX IMVI = test system: LOX IMVI
M14 = test system: M14
MCF7 = test system: MCF7
MDA-MB-231 = test system: MDA-MB-231
MDA-MB-435 = test system: MDA-MB-435
MDA-N = test system: MDA-N
MOLT-4 = test system: MOLT-4
Malme-3M = test system: Malme-3M
NCI-H226 = test system: NCI-H226
NCI-H23 = test system: NCI-H23
NCI-H460 = test system: NCI-H460
NCI-H522 = test system: NCI-H522
NCI/ADR-RES = test system: NCI/ADR-RES
OVCAR-3 = test system: OVCAR-3
OVCAR-4 = test system: OVCAR-4
OVCAR-5 = test system: OVCAR-5
OVCAR-8 = test system: OVCAR-8
PC-3 = test system: PC-3
RPMI-8226 = test system: RPMI-8226
RXF 393 = test system: RXF 393
SF-268 = test system: SF-268
SF-295 = test system: SF-295
SF-539 = test system: SF-539
SK-MEL-28 = test system: SK-MEL-28
SK-MEL-2 = test system: SK-MEL-2
SK-MEL-5 = test system: SK-MEL-5
SK-OV-3 = test system: SK-OV-3
SN12C = test system: SN12C
SNB-19 = test system: SNB-19
SNB-75 = test system: SNB-75
SR = test system: SR
SW-620 = test system: SW-620
T47D = test system: T47D
TK-10 = test system: TK-10
U-251 = test system: U-251
UACC-257 = test system: UACC-257
UACC-62 = test system: UACC-62
UO-31 = test system: UO-31

CC(C)OC(=S)Nc1ccc(Cl)c(/C=N/OC(C)(C)C)c1
GI50 (786-0): 16.7 µM (inactive)
GI50 (A498): 12.6 µM (inactive)
GI50 (A549): 16.9 µM (inactive)
GI50 (ACHN): 15.1 µM (inactive)
GI50 (BT-549): 18.5 µM (inactive)
GI50 (CAKI-1): 15.1 µM (inactive)
GI50 (CCRF-CEM): 15.9 µM (inactive)
GI50 (COLO 205): 17.1 µM (inactive)
GI50 (DU-145): 13 µM (inactive)
GI50 (EKVX): 15.4 µM (inactive)
GI50 (HCC 2998): 19.6 µM (inactive)
GI50 (HCT-116): 15.4 µM (inactive)
GI50 (HCT-15): 16.6 µM
GI50 (HL-60): 16.4 µM (inactive)
GI50 (HOP-62): 19.5 µM (inactive)
GI50 (HOP-92): 12.2 µM (inactive)
GI50 (HT-29): 14.4 µM (inactive)
GI50 (Hs-578T): 16.6 µM (inactive)
GI50 (IGROV-1): 17.5 µM (inactive)
GI50 (K562): 20 µM (inactive)
GI50 (KM12): 12.5 µM (inactive)
GI50 (LOX IMVI): 17.1 µM (inactive)
GI50 (M14): 19.9 µM (inactive)
GI50 (MCF7): 22.9 µM (inactive)
GI50 (MDA-MB-231): 14.9 µM (inactive)
GI50 (MDA-MB-435): 18 µM (inactive)
GI50 (MDA-N): 22.9 µM (inactive)
GI50 (MOLT-4): 15.6 µM (inactive)
GI50 (Malme-3M): 16.7 µM (inactive)
GI50 (NCI-H226): 17.9 µM (inactive)
GI50 (NCI-H23): 18.5 µM (inactive)
GI50 (NCI-H460): 17.4 µM (inactive)
GI50 (NCI-H522): 15.7 µM (inactive)
GI50 (NCI/ADR-RES): 11.9 µM (inactive)
GI50 (OVCAR-3): 18.5 µM (inactive)
GI50 (OVCAR-4): 18.1 µM (inactive)
GI50 (OVCAR-5): 16 µM (inactive)
GI50 (OVCAR-8): 12.3 µM (inactive)
GI50 (PC-3): 20.1 µM (inactive)
GI50 (RPMI-8226): 18.1 µM (inactive)
GI50 (RXF 393): 14.5 µM (inactive)
GI50 (SF-268): 19.3 µM (inactive)
GI50 (SF-295): 13.5 µM (inactive)
GI50 (SF-539): 15.5 µM (inactive)
GI50 (SK-MEL-28): 21.7 µM (inactive)
GI50 (SK-MEL-2): 18.5 µM (inactive)
GI50 (SK-MEL-5): 16.2 µM (inactive)
GI50 (SK-OV-3): 19.8 µM (inactive)
GI50 (SN12C): 16.7 µM (inactive)
GI50 (SNB-19): 20.7 µM (inactive)
GI50 (SNB-75): 23.5 µM (inactive)
GI50 (SR): 20.4 µM (inactive)
GI50 (SW-620): 16.6 µM (inactive)
GI50 (T47D): 15.7 µM (inactive)
GI50 (TK-10): 12.4 µM (inactive)
GI50 (U-251): 17.1 µM (inactive)
GI50 (UACC-257): 18.2 µM (inactive)
GI50 (UACC-62): 16.4 µM (inactive)
GI50 (UO-31): 13.9 µM (inactive)

OCCSCc1ccccc1
GI50 (786-0): > 100 µM (inactive)
GI50 (A498): > 100 µM (inactive)
GI50 (A549): > 100 µM (inactive)
GI50 (ACHN): > 100 µM (inactive)
GI50 (BT-549): > 100 µM (inactive)
GI50 (CAKI-1): > 100 µM (inactive)
GI50 (CCRF-CEM): > 100 µM (inactive)
GI50 (COLO 205): > 100 µM (inactive)
GI50 (DU-145): > 100 µM (inactive)
GI50 (EKVX): > 100 µM (inactive)
GI50 (HCC 2998): > 100 µM (inactive)
GI50 (HCT-116): > 100 µM (inactive)
GI50 (HCT-15): > 100 µM
GI50 (HL-60): > 100 µM (inactive)
GI50 (HOP-62): > 100 µM (inactive)
GI50 (HOP-92): > 100 µM (inactive)
GI50 (HT-29): > 100 µM (inactive)
GI50 (Hs-578T): > 100 µM (inactive)
GI50 (IGROV-1): > 100 µM (inactive)
GI50 (K562): > 100 µM (inactive)
GI50 (KM12): > 100 µM (inactive)
GI50 (LOX IMVI): > 100 µM (inactive)
GI50 (M14): > 100 µM (inactive)
GI50 (MCF7): > 100 µM (inactive)
GI50 (MDA-MB-231): > 100 µM (inactive)
GI50 (MDA-MB-435): > 100 µM (inactive)
GI50 (MDA-N): > 100 µM (inactive)
GI50 (MOLT-4): > 100 µM (inactive)
GI50 (Malme-3M): > 100 µM (inactive)
GI50 (NCI-H226): > 100 µM (inactive)
GI50 (NCI-H23): > 100 µM (inactive)
GI50 (NCI-H460): > 100 µM (inactive)
GI50 (NCI-H522): > 100 µM (inactive)
GI50 (NCI/ADR-RES): > 100 µM (inactive)
GI50 (OVCAR-3): > 100 µM (inactive)
GI50 (OVCAR-4): > 100 µM (inactive)
GI50 (OVCAR-5): > 100 µM (inactive)
GI50 (OVCAR-8): > 100 µM (inactive)
GI50 (PC-3): > 100 µM (inactive)
GI50 (RPMI-8226): > 100 µM (inactive)
GI50 (RXF 393): > 100 µM (inactive)
GI50 (SF-268): > 100 µM (inactive)
GI50 (SF-295): > 100 µM (inactive)
GI50 (SF-539): > 100 µM (inactive)
GI50 (SK-MEL-28): > 100 µM (inactive)
GI50 (SK-MEL-2): > 100 µM (inactive)
GI50 (SK-MEL-5): > 100 µM (inactive)
GI50 (SK-OV-3): > 100 µM (inactive)
GI50 (SN12C): > 100 µM (inactive)
GI50 (SNB-19): > 100 µM (inactive)
GI50 (SNB-75): > 100 µM (inactive)
GI50 (SR): > 100 µM (inactive)
GI50 (SW-620): > 100 µM (inactive)
GI50 (T47D): > 100 µM (inactive)
GI50 (TK-10): > 100 µM (inactive)
GI50 (U-251): > 100 µM (inactive)
GI50 (UACC-257): > 100 µM (inactive)
GI50 (UACC-62): > 100 µM (inactive)
GI50 (UO-31): > 100 µM (inactive)

COCOC1/C=C/CCCCC(=O)C(C)C#CC1 (configuration not stated)
GI50 (786-0): 2.09 µM (inactive)
GI50 (A498): 10.7 µM (inactive)
GI50 (A549): 12.9 µM (inactive)
GI50 (ACHN): 6.67 µM (inactive)
GI50 (BT-549): 6.97 µM (inactive)
GI50 (CAKI-1): 5.09 µM (inactive)
GI50 (CCRF-CEM): 1.87 µM (inactive)
GI50 (COLO 205): 2.51 µM (inactive)
GI50 (DU-145): 12.8 µM (inactive)
GI50 (EKVX): 9.86 µM (inactive)
GI50 (HCC 2998): 7.89 µM (inactive)
GI50 (HCT-116): 1.86 µM (inactive)
GI50 (HCT-15): 2.36 µM
GI50 (HL-60): 1.71 µM (inactive)
GI50 (HOP-62): 17.5 µM (inactive)
GI50 (HOP-92): 3.1 µM (inactive)
GI50 (HT-29): 3.37 µM (inactive)
GI50 (Hs-578T): 20.3 µM (inactive)
GI50 (IGROV-1): 3.65 µM (inactive)
GI50 (K562): 2.97 µM (inactive)
GI50 (KM12): 7.4 µM (inactive)
GI50 (LOX IMVI): 2.19 µM (inactive)
GI50 (M14): 3.72 µM (inactive)
GI50 (MCF7): 3.89 µM (inactive)
GI50 (MDA-MB-231): 4.73 µM (inactive)
GI50 (MDA-MB-435): 5.52 µM (inactive)
GI50 (MDA-N): 11.5 µM (inactive)
GI50 (MOLT-4): 2.09 µM (inactive)
GI50 (Malme-3M): 1.98 µM (inactive)
GI50 (NCI-H226): 17.2 µM (inactive)
GI50 (NCI-H23): 4.63 µM (inactive)
GI50 (NCI-H460): 7.13 µM (inactive)
GI50 (NCI-H522): 1.53 µM (inactive)
GI50 (NCI/ADR-RES): 4.18 µM (inactive)
GI50 (OVCAR-3): 4.13 µM (inactive)
GI50 (OVCAR-4): 10.2 µM (inactive)
GI50 (OVCAR-5): 12.8 µM (inactive)
GI50 (OVCAR-8): 4.18 µM (inactive)
GI50 (PC-3): 11.4 µM (inactive)
GI50 (RPMI-8226): 1.46 µM (inactive)
GI50 (RXF 393): 3.06 µM (inactive)
GI50 (SF-268): 15.1 µM (inactive)
GI50 (SF-295): 16.6 µM (inactive)
GI50 (SF-539): 5.7 µM (inactive)
GI50 (SK-MEL-28): 12.4 µM (inactive)
GI50 (SK-MEL-2): 5.81 µM (inactive)
GI50 (SK-MEL-5): 8.87 µM (inactive)
GI50 (SK-OV-3): 15.8 µM (inactive)
GI50 (SN12C): 6.27 µM (inactive)
GI50 (SNB-19): 17.8 µM (inactive)
GI50 (SNB-75): 12.9 µM (inactive)
GI50 (SR): 2.74 µM (inactive)
GI50 (SW-620): 1.89 µM (inactive)
GI50 (T47D): 2.76 µM (inactive)
GI50 (TK-10): 8 µM (inactive)
GI50 (U-251): 14.4 µM (inactive)
GI50 (UACC-257): 5.65 µM (inactive)
GI50 (UACC-62): 2.4 µM (inactive)
GI50 (UO-31): 5.7 µM (inactive)
